Assays:
Format in all cases: cell-based, human
p38 MAPK [1] = assay: p38 MAPK activation (FACE ELISA), SKOV-3; conditions: 24 h, 10, 50, 100 μM tested
Method: (§1) Activation of p38 MAPK was examined using the Fast Activated Cell-Based ELISA (FACE) p38 kit (Active Motif) according to the manufacturer's instructions. In brief, cells were fixed with 4% formaldehyde and incubated with a primary antibody that recognizes either phosphorylated p38 or total p38 overnight at 4°C. Then the cells were washed and incubated with a secondary HRP-conjugated antibody for 1 h at room temperature. The color reaction that developed was read using a spectrofluorometer at 450 nm wavelength.
(§2) The results were expressed as a ratio of phosphorylated to total p38 activity.

HPMCs [2] = assay: Cell proliferation (CFDA SE), HPMCs; conditions: 24 h, percentage of control cells
Method: Cell proliferative potential was determined using Cell Proliferation Kit I (PromoKine, Heidelberg, Germany) according to the manufacturer's instructions. In brief, cells were probed for 15 min with 5-(and 6)-carboxyfluorescein diacetate, a succinimidyl ester (CFDA SE; 2 μM) which diffuses into cells, covalently binds to proteins, and becomes fluorescent upon its hydrolysis by intracellular esterases. The fluorescence emitted by the cells (the dye is inherited by the daughter cells through successive divisions) was recorded using a Victor2 spectrofluorometer (Perkin-Elmer, Turku, Finland) with excitation at 435 nm and emission at 535 nm.

[3] = system: superoxide dismutase (SOD); assay: SOD activity in cell lysates, OVCAR-3; conditions: 24 h, 10, 50, 100 μM tested
Method: (§3) Total activity of superoxide dismutase (SOD) was measured in cell lysates with a commercially available kit (R&D Systems Europe, Abingdon, UK), while the activity of catalase (CAT) was estimated by using the OxiSelect Catalase Activity Assay Kit (Cell Biolabs Inc., San Diego, CA, USA). Both assays were performed according to the manufacturer's instructions.

HOSE cells [4] = assay: SA-β-Gal activity (senescence), HOSE cells; conditions: 24 h, percentage of control cells
Method: (§4) The activity of SA-β-Gal in the cell extracts was quantified by measuring the rate of conversion of 4-methylumbelliferyl-β-D-galactopyranoside to 4-methylumbelliferone, as described in [19]. In order to visualize expression of the enzyme in the cancer cell cytoplasm, cytochemical staining for SA-β-Gal was performed according to Dimri et al..

HOSE cells [5] = assay: Apoptosis (Hoechst 33258), HOSE cells; conditions: 24 h, percentage of control cells
Method: (§5) Identification of apoptosis was based on the presence of DNA condensation in cells stained with a fluorescent dye, Hoechst 33258 (Molecular Probes, Eugene, OR). Cells were grown on Lab-Tek Chamber Slides (Nunc, Roskilde, Denmark), fixed with 4% formaldehyde for 10 min and washed twice with PBS. Then the cells were incubated with Hoechst 33258 (0.1 μg/mL) for 5 min in the dark. After washing with PBS, stained nuclei were observed and counted under a Zeiss Axio Observer D1 fluorescence microscope (Carl Zeiss, Jena, Germany). The activity of caspases 3, 8, and 9 was quantified in the cell lysates using specific colorimetric kits (Abcam, Cambridge, UK) according to the manufacturer's instructions.

HPMCs [6] = assay: SA-β-Gal activity (senescence), HPMCs; conditions: 24 h, percentage of control cells
Method: as §4

[7] = MTT viability assay, HPMCs; conditions: human, percentage of control cells
Method: Cell viability was assessed with the MTT test and with lactate dehydrogenase (LDH) release assay. As per the MTT method, normal and cancer cells were seeded into 96-well plates at high density and allowed to attach overnight. Then they were incubated in a medium containing 1.25 mg/mL of the MTT salt [3-(4,5-dimethylthiazol-2-yl)-2,5-diphenyltetrazolium bromide] for 24 h at 37°C. The generated formazan was solubilized with 20% sodium dodecyl sulphate and 50% N,N-dimethylformamide. Absorbance of the converted dye was recorded at 595 nm with a reference wavelength of 690 nm.
In order to examine the effect of 3,3′,4,4′-THS on the viability of ovarian cancer cells and to compare its activity with RVT, subconfluent cultures of A2780, OVCAR-3, and SKOV-3 cells were subjected to a wide range of stilbene concentrations (0–500 μM) for 24 h; then MTT and LDH release assays were performed.

caspase-9 = assay: Caspase-9 activity in ovarian cancer cell lysates; conditions: ovarian cancer cells (A2780, OVCAR-3, SKOV-3); 24 h
Method: as §5

[8] = system: superoxide dismutase (SOD); assay: SOD activity in cell lysates, HOSE cells; conditions: 24 h, percentage of control cells
Method: as §3

HOSE cells [9] = assay: Oxidative DNA damage (8-OH-dG immunoassay), HOSE cells; conditions: 24 h, percentage of control cells
Method: Oxidative DNA damage was assessed by measuring the 8-OH-dG concentration with a competitive immunoassay (Cell Biolabs Inc.), as per manufacturer's instructions. The efficiency of 8-OH-dG repair was estimated after cell recovery for 24 h in standard growth medium. In order to examine the activity of DNA glycosylase I, reverse transcription PCR was performed. RNA extraction was carried out using the RNA Bee (Tel-Test, Friendswood, Texas, USA) and purified according to the manufacturer's protocol. One microgram of RNA was reverse transcribed into cDNA with random hexamer primers, and cDNA was subjected to PCR. The profile of the replication cycles was denaturation at 94°C for 50 s, annealing at 58°C for 50 s, and polymerization at 72°C for 1 min. In each reaction, the expression of glyceraldehyde-3-phosphate dehydrogenase (GAPDH) served as the internal control. The primers used for PCR were as follows: hOGG1 forward, 5′-[…]-3′; hOGG1 reverse, 5′-TAGCCCGCCCTGTTCTTC-3′ designed to amplify a 551-bp region; GAPDH forward, 5′-CCATGGAGAAGGCTGGGG-3′; and GAPDH reverse 5′-[…]-3′ designed to amplify a 194-bp region (total number of cycles: 28). The PCR products were separated on 3% agarose gels stained with ethidium bromide and then visualized.

HOSE cells [10] = assay: LDH release assay, HOSE cells; conditions: Homo sapiens, 24 h, CalcuSyn
p38 MAPK [11] = assay: p38 MAPK activation (FACE ELISA), OVCAR-3; conditions: 24 h, 10, 50, 100 μM tested
Method: as §1, §2

catalase (CAT) = assay: CAT activity, A2780; conditions: 24 h, 10, 50, 100 μM tested
Method: as §3

p38 MAPK [12] = assay: p38 MAPK activation (FACE ELISA), HPMCs; conditions: 24 h, percentage of control cells
Method: as §1, §2

| Structure (SMILES) | p38 MAPK activity (phosphorylated/total), effect in words (p38 MAPK [1]) | Proliferation (HPMCs [2]; 10 μM) | Proliferation (HPMCs [2]; 50 μM) [%] | Proliferation (HPMCs [2]; 100 μM) [%] | SOD activity, effect in words [3] | SA-β-Gal (HOSE cells [4]; 10 μM) [%] | SA-β-Gal (HOSE cells [4]; 50 μM) [%] | SA-β-Gal (HOSE cells [4]; 100 μM) [%] | Apoptosis (HOSE cells [5]; 10 μM) [%] | Apoptosis (HOSE cells [5]; 50 μM) [%] | Apoptosis (HOSE cells [5]; 100 μM) [%] | SA-β-Gal (HPMCs [6]; 10 μM) | SA-β-Gal (HPMCs [6]; 50 μM) [%] | SA-β-Gal (HPMCs [6]; 100 μM) [%] | caspase-9 activity, effect in words (caspase-9) | SOD ([8]; 10 μM) | SOD ([8]; 50 μM) | SOD ([8]; 100 μM) | 8-OH-dG (HOSE cells [9]; 10 μM) [%] | 8-OH-dG (HOSE cells [9]; 50 μM) | further results |
| --- | --- | --- | --- | --- | --- | --- | --- | --- | --- | --- | --- | --- | --- | --- | --- | --- | --- | --- | --- | --- | --- |
| Oc1ccc(/C=C/c2ccc(O)c(O)c2)cc1O [3,3′,4,4′-THS, 3,3′,4,4′-tetrahydroxy-trans-stilbene] | exerted upregulatory activity at 50 and 100 μM | 141 ± 3^∗# % | 103 ± 1 | 102 ± 2 | increased SOD at 10 μM and decreased the activity of the enzyme at 50 and 100 μM | 99 ± 2 | 101 ± 3 | 102 ± 5 | 101 ± 1 | 100 ± 2 | 102 ± 2 | 76 ± 3^∗# % | 104 ± 4 | 99 ± 3 | increased the activity of the same caspases as RVT did | 122 ± 1^∗# % | 141 ± 5^∗# % | 136 ± 2^∗# % | 103 ± 3 | 76 ± 3^∗# % | viability at 24 h, 10 µM ([7]; 10 μM): 108 ± 14%; viability at 24 h, 50 µM ([7]; 50 μM): 100 ± 4%; viability at 24 h, 100 µM ([7]; 100 μM): 102 ± 2%; 8-OH-dG (HOSE cells [9]; 100 μM): 71 ± 2^∗# %; IC50 (HOSE cells [10]): 532 µM; p38 MAPK activity (phosphorylated/total), effect in words (p38 MAPK [11]): exerted upregulatory activity at 50 and 100 μM; CAT activity, effect in words (catalase (CAT)): did not change CAT activity; p38 MAPK (p38 MAPK [12]; 10 μM): 82 ± 3^∗# %; p38 MAPK (p38 MAPK [12]; 50 μM): 81 ± 6^∗# %; p38 MAPK (p38 MAPK [12]; 100 μM): 104 ± 2% |
| Oc1ccc(/C=C/c2cc(O)cc(O)c2)cc1 [RVT, 3,4′,5-trihydroxy-trans-stilbene, reference compound] | failed to activate p38 MAPK | 99 ± 3% | 103 ± 4 | 102 ± 2 | upregulated activity of the enzyme | 101 ± 2 | 101 ± 2 | 100 ± 3 | 99 ± 2 | 101 ± 2 | 102 ± 3 | 100 ± 2% | 102 ± 4 | 100 ± 1 | activated caspases 9 and 3, and this activity was evident at 50 and 100 μM | 111 ± 3^∗ % | 112 ± 3^∗ % | 121 ± 4^∗ % | 103 ± 5 | 102 ± 5% | 8-OH-dG (HOSE cells [9]; 100 μM): 82 ± 4^∗ %; IC50 (HOSE cells [10]): 421 µM; p38 MAPK activity (phosphorylated/total), effect in words (p38 MAPK [11]): failed to activate p38 MAPK; CAT activity, effect in words (catalase (CAT)): stimulated the enzyme at 10 μM in the OVCAR-3 cells, at 50 μM in the A2780, OVCAR-3, and SKOV-3 cells, and at 100 μM in the OVCAR-3 and SKOV-3 cells; p38 MAPK (p38 MAPK [12]; 10 μM): 113 ± 16%; p38 MAPK (p38 MAPK [12]; 50 μM): 103 ± 2%; p38 MAPK (p38 MAPK [12]; 100 μM): 105 ± 7% |

— publication PMC4502315, “High Potency of a Novel Resveratrol Derivative, 3,3′,4,4′-Tetrahydroxy-trans-stilbene, against Ovarian Cancer Is Associated with an Oxidative Stress-Mediated Imbalance between DNA Damage Accumulation and Repair” (Oxidative Medicine and Cellular Longevity, 2015)
